Where two headings read alike, the source gives them in different places.
Key:
κOR [1] = molecular target: T1, κOR (Homo sapiens, UniProt P41145); assay: cell-based; format: cell-based; settings: for Emax: read-out: κOR cAMP inhibition Emax ± SEM (%)
T1 construct: host or cells: CHO-K1

μOR = molecular target: T2, μOR (Homo sapiens, UniProt P35372); assay: cell-based; format: cell-based; settings: for Emax: read-out: μOR cAMP inhibition Emax ± SEM (%)
T2 construct: host or cells: CHO-K1

320 non-olfactory GPCRs = assay: PRESTO-Tango GPCRome screen of βArr2 recruitment; format: cell-based; settings: 3 μM, FIG. 7
HERG = HERG (Homo sapiens, UniProt Q12809); settings: data from reference 40; cited from earlier work
Chain of HERG (Q12809 whole entry): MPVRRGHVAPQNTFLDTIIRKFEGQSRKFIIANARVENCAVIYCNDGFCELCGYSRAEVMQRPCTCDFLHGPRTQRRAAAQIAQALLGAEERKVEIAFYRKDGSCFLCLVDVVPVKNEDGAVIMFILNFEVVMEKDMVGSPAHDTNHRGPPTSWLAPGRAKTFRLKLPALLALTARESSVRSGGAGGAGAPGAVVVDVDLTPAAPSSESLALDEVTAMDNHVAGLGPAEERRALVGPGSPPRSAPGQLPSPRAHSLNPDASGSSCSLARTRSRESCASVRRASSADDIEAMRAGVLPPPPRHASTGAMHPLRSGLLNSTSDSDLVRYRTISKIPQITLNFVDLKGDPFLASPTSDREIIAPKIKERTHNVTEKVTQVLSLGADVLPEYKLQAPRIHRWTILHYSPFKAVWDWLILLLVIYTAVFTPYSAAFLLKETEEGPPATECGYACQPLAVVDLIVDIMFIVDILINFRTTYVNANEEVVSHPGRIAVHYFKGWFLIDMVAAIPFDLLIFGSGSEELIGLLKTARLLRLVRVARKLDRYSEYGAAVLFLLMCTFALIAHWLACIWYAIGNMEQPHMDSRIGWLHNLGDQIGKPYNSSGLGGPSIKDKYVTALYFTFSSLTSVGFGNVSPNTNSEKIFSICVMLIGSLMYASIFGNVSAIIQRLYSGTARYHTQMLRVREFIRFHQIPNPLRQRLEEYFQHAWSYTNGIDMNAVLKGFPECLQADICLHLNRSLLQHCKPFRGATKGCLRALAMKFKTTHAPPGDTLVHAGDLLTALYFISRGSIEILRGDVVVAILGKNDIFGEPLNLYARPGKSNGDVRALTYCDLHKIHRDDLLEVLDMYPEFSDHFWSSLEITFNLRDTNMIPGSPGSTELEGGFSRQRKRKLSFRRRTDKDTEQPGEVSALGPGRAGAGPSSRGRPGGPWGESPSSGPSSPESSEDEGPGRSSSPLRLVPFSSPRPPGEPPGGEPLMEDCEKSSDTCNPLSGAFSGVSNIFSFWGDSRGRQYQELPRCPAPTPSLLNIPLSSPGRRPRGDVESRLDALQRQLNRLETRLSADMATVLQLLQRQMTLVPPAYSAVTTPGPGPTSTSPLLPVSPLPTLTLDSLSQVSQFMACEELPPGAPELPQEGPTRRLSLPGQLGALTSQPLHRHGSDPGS

κOR [2] = molecular target: T1, κOR; assay: PathHunter β-arrestin-2 recruitment assay at the κOR; format: cell-based; settings: FIG. 6
Description: Cell Lines and Cell Culture. To perform the HitHunter cAMP accumulation assay, Chinese hamster ovary cells (CHO-K1) stably expressing human μ-opioid receptor (OPRM1, catalog no. 95-0107C2, DiscoverX, Fremont, CA, USA), K-opioid receptor (OPRK1, catalog no. 95-0088C2, DiscoverX, Fremont, CA, USA), or 6-opioid receptor (OPRD1, catalog no. 95-0108C2, DiscoverX, Fremont, CA, USA) were maintained at 80% confluence in F-12 media supplemented with 10% fetal bovine serum, 1% penicillin/streptomycin/L-glutamine, and 800 μg/mL G418. To perform the PathHunter β-arrestin-2 recruitment assay, U2OS-human κ opioid receptor (κOR) cells stably expressing the κOR and β-arrestin-2 (RRID:CVCL_LA97, DiscoverX, Fremont, CA, USA) were maintained in McCoy's 5A media supplemented with 10% FBS and containing 500 μg/mL geneticin and 250 μg/mL hygromycin. All cells were grown 37° C. under 5% CO2 in a humidified incubator under sterile conditions in T75 flasks. During passaging, cells were dislodged from the flask following a 3-5 min incubation with 0.25% trypsin or non-enzymatic detachment reagent and subcultivated at ratios of 1:10 (CHO) and 3:10 (U2OS).
PathHunter β-arrestin-2 Recruitment Assay. The R-arrestin-2 recruitment assay was performed using U2OS-human (κOR) PathHunter R-arrestin-2 cells (DiscoverX) as previously described.^77

[3] = read-out: κOR cAMP inhibition EC50
[4] = read-out: μOR cAMP inhibition EC50

T2 sequence (P35372 whole entry): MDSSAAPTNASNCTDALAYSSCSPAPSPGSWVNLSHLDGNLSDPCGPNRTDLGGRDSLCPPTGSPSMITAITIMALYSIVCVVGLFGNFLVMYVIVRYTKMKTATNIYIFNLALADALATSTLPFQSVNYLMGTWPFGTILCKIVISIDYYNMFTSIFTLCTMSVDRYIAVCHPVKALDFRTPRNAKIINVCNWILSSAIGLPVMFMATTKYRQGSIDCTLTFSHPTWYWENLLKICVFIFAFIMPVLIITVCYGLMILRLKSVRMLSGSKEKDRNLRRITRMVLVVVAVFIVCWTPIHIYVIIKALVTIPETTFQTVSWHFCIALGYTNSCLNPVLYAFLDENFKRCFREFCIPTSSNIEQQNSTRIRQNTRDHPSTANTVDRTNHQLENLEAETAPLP
T1 sequence (P41145 whole entry): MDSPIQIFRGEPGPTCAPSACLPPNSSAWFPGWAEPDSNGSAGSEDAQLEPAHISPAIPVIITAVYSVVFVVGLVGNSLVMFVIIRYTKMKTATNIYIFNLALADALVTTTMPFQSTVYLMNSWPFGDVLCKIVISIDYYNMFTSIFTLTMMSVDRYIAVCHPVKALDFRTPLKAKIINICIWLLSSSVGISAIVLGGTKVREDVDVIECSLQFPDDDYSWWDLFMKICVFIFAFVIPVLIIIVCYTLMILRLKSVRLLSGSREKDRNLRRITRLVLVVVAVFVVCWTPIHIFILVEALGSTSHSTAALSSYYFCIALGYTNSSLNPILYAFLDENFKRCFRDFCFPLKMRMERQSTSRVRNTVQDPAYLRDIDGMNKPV

C/C=C1/CN2CC[C@]34C(=C(C(=O)OC)[C@H]1C[C@H]23)Nc1ccc(-c2ccsc2)cc14 [Compound 6, 10-(3-Thienyl)akuammicine]
κOR cAMP inhibition pEC50 ± SEM (κOR [1]): 8.1 ± 0.1 | EC50 (κOR [1]; [3]): 7.7 nM | Emax (κOR [1]): 104 ± 3% | EC50 (μOR): 720 to 840 nM | μOR cAMP inhibition pEC50 ± SEM (μOR): 6.1 ± 0.1 | EC50 (μOR; [4]): 840 nM | Emax (μOR): 107 ± 3%

C/C=C1/CN2CC[C@]34c5cc(Br)ccc5NC3C(C(=O)OC)[C@H]1C[C@H]24 (stereo partly drawn) [Compound 21, 10-Bromo-2,16-dihydroakuammicine]
κOR cAMP inhibition pEC50 ± SEM (κOR [1]): 7.3 ± 0.1 | EC50 (κOR [1]; [3]): 47 nM | Emax (κOR [1]): 100 ± 4%

19-Hydroxyalstolucine [Compound 12]
agonist activity at the κOR (κOR [1]): no agonist activity | κOR cAMP inhibition Emax ± SEM (%) (κOR [1]): <10% | κOR cAMP inhibition pEC50 ± SEM (κOR [1]): — (key: — = no activity observed at 10 μM.) | EC50 (κOR [1]; [3]): > 10000 nM | agonist activity at the μOR (μOR): no agonist activity | μOR cAMP inhibition Emax ± SEM (%) (μOR): <10% | μOR cAMP inhibition pEC50 ± SEM (μOR): — (key: — = no activity observed at 10 μM.) | EC50 (μOR; [4]): > 10000 nM

CC=C1C[N+]2(C)CCC34C(=C(C(=O)OC)C1CC32)Nc1ccc(Br)cc14 (stereo not drawn) [Compound 23, 10-Bromo-N-4-methylakuammicine]
EC50 (κOR [1]): 940 nM | Emax (κOR [1]): 102 ± 7% | EC50 (μOR): > 10000 nM | EC50 (μOR; [4]): > 10000 nM | Emax (μOR): < 10%

CC=C1CN2CCC34C(=C(C(=O)OC)C1CC23)Nc1ccc([N+](=O)[O-])cc14 (stereo not drawn) [Compound 8, 10-Nitroakuammicine]
βArr recruitment against GPCRome (320 non-olfactory GPCRs): induced recruitment of a number of non-opioid targets | EC50 (κOR [1]): 160 nM | Selectivity index = μOR EC50/κOR EC50 (κOR [1]): 25 | Emax (κOR [1]): 96 ± 5% | EC50 (μOR): 4000 nM | Emax (μOR): < 10%

CC=C1CN2CCC34C(=C(C(=O)OC)C1CC23)Nc1ccc(C#N)cc14 (stereo not drawn) [Compound 7, 10-Cyanoakuammicine]
EC50 (κOR [1]): 81 nM | Emax (κOR [1]): 102 ± 6% | EC50 (μOR): > 10000 nM | agonist activity at the μOR (μOR): without activating the μOR | EC50 (μOR; [4]): > 10000 nM | Emax (μOR): < 10%

C/C=C1/C[N+]2(Cc3ccccc3)CC[C@]34C(=C(C(=O)OC)[C@H]1C[C@@H]32)Nc1ccccc14 (stereo partly drawn) [Compound 20, N-4-Benzylakuammicine]
Emax (κOR [1]): < 10% | μOR cAMP inhibition pEC50 ± SEM (μOR): 5.6 ± 0.1 | EC50 (μOR; [4]): 2300 nM | Emax (μOR): 112 ± 6%

CCC1CN2CCC34C(=C(C(=O)OC)C1CC23)Nc1ccc(Br)cc14 (stereo not drawn) [Compound 27, 10-Bromo-19,20-dihydroakuammicine]
Selectivity index = μOR EC50/κOR EC50 (κOR [1]): 35 | κOR cAMP inhibition pEC50 ± SEM (κOR [1]): 7.5 ± 0.1 | EC50 (κOR [1]; [3]): 31 nM | Emax (κOR [1]): 100 ± 5% | μOR cAMP inhibition pEC50 ± SEM (μOR): 6.0 ± 0.1 | EC50 (μOR; [4]): 1100 nM | Emax (μOR): 107 ± 5%

CC=C1CN2CCC34c5cc(I)ccc5NC3C(C(=O)OC)C1CC24 (stereo not drawn) [Compound 22, 10-Iodo-2,16-dihydroakuammicine]
EC50 (κOR [1]): 24 nM | EC50 (μOR): > 10000 nM | EC50 (μOR; [4]): > 10000 nM

COC(=O)C1=C2Nc3ccccc3[C@@]23CCN2C[C@@](O)([C@@H](C)O)[C@@H]1C[C@H]23 [Compound 10, 19R,20R-Dihydroxyakuammicine]
agonist activity at the κOR (κOR [1]): no agonist activity | agonist activity at the μOR (μOR): no agonist activity

C=CC[N+]12CCC34C(=C(C(=O)OC)C(CC31)C(=CC)C2)Nc1ccccc14 (stereo not drawn) [Compound 17, N-4-Allylakuammicine]
EC50 (κOR [1]): > 10000 nM | EC50 (κOR [1]; [3]): > 10000 nM | Emax (κOR [1]): < 10% | EC50 (μOR): > 10000 nM | EC50 (μOR; [4]): > 10000 nM | Emax (μOR): < 10%

CCC1CN2CCC34c5ccccc5NC3C(C(=O)OC)C1CC24 (stereo not drawn) [Compound 15, 2,16,19,20-tetrahydroakuammicine]
EC50 (κOR [1]): > 10000 nM | agonist activity at the κOR (κOR [1]): all κOR agonist activity is abolished or significantly diminished | EC50 (κOR [1]; [3]): > 10000 nM | Emax (κOR [1]): < 10% | EC50 (μOR): > 10000 nM | EC50 (μOR; [4]): > 10000 nM | Emax (μOR): < 10%

C/C=C1/C[N+]2(CCC)CC[C@]34C(=C(C(=O)OC)[C@H]1C[C@@H]32)Nc1ccccc14 (stereo partly drawn) [Compound 18, N-4-Propylakuammicine]
Emax (κOR [1]): < 10% | Emax (μOR): < 10%

C/C=C1/CN2CC[C@]34c5ccccc5NC3C(C(=O)OC)[C@H]1C[C@H]24 (stereo partly drawn) [Compound 14, 2,16-dihydroakuammicine]
EC50 (κOR [1]): > 10000 nM | agonist activity at the κOR (κOR [1]): all κOR agonist activity is abolished or significantly diminished | EC50 (κOR [1]; [3]): > 10000 nM | Emax (κOR [1]): < 10% | EC50 (μOR): > 10000 nM | EC50 (μOR; [4]): > 10000 nM | Emax (μOR): < 10%

C/C=C1/C[N+]2(CC3CC3)CC[C@]34C(=C(C(=O)OC)[C@H]1C[C@@H]32)Nc1ccc(Br)cc14 (stereo partly drawn) [Compound 25, 10-Bromo-N-4-cyclopropylmethylakuammicine]
κOR cAMP inhibition pEC50 ± SEM (κOR [1]): 6.7 ± 0.1 | EC50 (κOR [1]; [3]): 210 nM | Emax (κOR [1]): 94 ± 5% | Emax (μOR): < 10%

C/C=C1/CN2CC[C@]34C(=C(C(=O)OC)[C@H]1C[C@H]23)Nc1ccccc14 [Compound 1, Akuammicine, reference compound]
Ki (nM) at HERG (HERG): — (“—” indicates compound produced less than 50% displacement of radioligand in primary binding screen at 10 μM.) | Emax (κOR [1]): 91 ± 7%

CC=C1C[N+]2(CC3CC3)CCC34C(=C(C(=O)OC)C1CC32)Nc1ccccc14 (stereo not drawn) [Compound 19, N-4-Cyclopropylmethylakuammicine]
EC50 (κOR [1]): 4700 nM | fold reduced κOR potency compared to 1 (κOR [1]): about 4 fold | Emax (κOR [1]): 113 ± 24% | EC50 (μOR): > 10000 nM | EC50 (μOR; [4]): > 10000 nM | Emax (μOR): < 10%

C=CC[N+]12CCC34C(=C(C(=O)OC)C(CC31)C(=CC)C2)Nc1ccc(Br)cc14 (stereo not drawn) [Compound 24, 10-Bromo-N-4-allylakuammicine]
EC50 (κOR [1]): 650 nM | Emax (κOR [1]): 100 ± 7% | EC50 (μOR): > 10000 nM | EC50 (μOR; [4]): > 10000 nM | Emax (μOR): < 10%

C/C=C1/CN2CC[C@]34C(=C(C(=O)OC)[C@H]1C[C@H]23)Nc1ccc(-c2ccoc2)cc14 [Compound 5, 10-(3-Furanyl)akuammicine]
fold increase in κOR potency relative to 1 (κOR [1]): > 1,300 | κOR cAMP inhibition pEC50 ± SEM (κOR [1]): 9.1 ± 0.1 | EC50 (κOR [1]; [3]): 0.88 nM | Emax (κOR [1]): 102 ± 2% | βArr2 recruitment compared with U50,488 (κOR [2]): significantly less recruitment of βArr2 than U50488 at concentrations <10 μM | EC50 (μOR): 720 to 840 nM | μOR cAMP inhibition pEC50 ± SEM (μOR): 6.1 ± 0.2 | EC50 (μOR; [4]): 720 nM | Emax (μOR): 99 ± 12%

C/C=C1/C[N+]2(C)CC[C@]34C(=C(C(=O)OC)[C@H]1C[C@@H]32)Nc1ccccc14 (stereo partly drawn) [Compound 16, N-4-Methylakuammicine]
Emax (κOR [1]): < 10% | Emax (μOR): < 10%

CC[C@@H]1CN2CC[C@]34C(=C(C(=O)OC)[C@H]1C[C@H]23)Nc1ccccc14 [Compound 13, 19,20-dihydroakuammicine]
κOR cAMP inhibition Emax ± SEM (%) (κOR [1]): 99 ± 9% | κOR cAMP inhibition pEC50 ± SEM (κOR [1]): 5.8 ± 0.1 | EC50 (κOR [1]; [3]): 1600 nM | μOR cAMP inhibition Emax ± SEM (%) (μOR): <10% | μOR cAMP inhibition pEC50 ± SEM (μOR): — (key: — = no activity observed at 10 μM.) | EC50 (μOR; [4]): > 10000 nM

C/C=C1/CN2CC[C@]34C(=C(C(=O)OC)[C@H]1C[C@H]23)Nc1ccc(-c2ccccc2)cc14 [Compound 4, 10-Phenylakuammicine]
κOR cAMP inhibition pEC50 ± SEM (κOR [1]): 7.8 ± 0.1 | EC50 (κOR [1]; [3]): 15 nM | Emax (κOR [1]): 101 ± 2% | EC50 (μOR): 720 to 840 nM | μOR cAMP inhibition pEC50 ± SEM (μOR): 6.1 ± 0.1 | EC50 (μOR; [4]): 780 nM | Emax (μOR): 106 ± 6%

Reference: patent US20250051332A1 (priority 2022, published 2025)
